Laboratory results published in patent publication US9718868B2, “Parathyroid hormone, insulin, and related peptides conjugated to bone targeting moieties and methods and making and using thereof” (THE GOVERNORS OF THE UNIVERSITY OF ALBERTA, priority 2012, dated 2017).

Test system: bone volume in ovariectomized rats
Experiment: Change in bone volume by microCT in ovariectomized rat model of osteoporosis
Assay type: in vivo
Settings: OVX female rats, 60 μg/kg/day subcutaneous daily for 8 weeks starting 8 weeks after surgery; at 16 weeks post-ovariectomy; compared with sham, OVX-BP, OVX-PTH and weekly BP-PEG-PTH groups
Excerpt: Sixty female rats were divided into five groups and evaluated using the ovariectomy procedure (OVX): control (sham-operated; n=12), ovariectomy with bisphosphonate treatment (OVX-BP; n=12), OVX with teriparatide treatment (OVX-PTH; daily; n=12), OVX with daily BP-PEG-PTH treatment (n=12), and OVX with weekly BP-PEG-PTH treatment (n=12), where BP is 2-[(3-mercaptopropyl)thio]ethane-1,1-diyl}bis(phosphonic acid). Rats were ovariectomized at week 0 and the control group underwent a sham ovariectomy. Rats were left untreated for 8 weeks after surgery to allow for osteopenia to develop. After 8 weeks, rats in the OVX-PTH group received daily subcutaneous injections of PTH (60 μg/kg/day) for 8 weeks. Rats in the OVX-BP group received daily doses of bisphosphonate. Rats in the OVX-BP-PEG-PTH daily group received daily subcutaneous injections of BP-PEG-PTH (60 μg/kg/day). Rats in the OVX-BP-PEG-PTH weekly group received weekly subcutaneous injections of BP-PEG-PTH (60 μg/kg/week).
In vivo change in bone volume was measured by micro-computed tomography (microCT).

Substance: BP-PEG-PTH: hPTH (1-34) conjugated via Maleimide-PEG3500-NHS linker to thiol-bisphosphonate 2-[(3-mercaptopropyl)thio]ethane-1,1-diyl}bis(phosphonic acid)
- In vivo change in bone volume (microCT): greatest increase in bone volume
